Measurements published in patent US12138256B2, “Treatment of cardiopulmonary disorders” (Bayer Aktiengesellschaft, priority 2021, dated 2024).
pIC50: −log10 of the molar value. Values joined by “and” are separate entries in the source; they are usually repeats but may differ in a detail not shown here. Identical values can stand only once. Like-named read-outs stand apart in the source and are kept apart here.

Key:
[1] = tested on: rabbit saphenous artery; assay: Vasorelaxant effect in vitro: phenylephrine-induced contraction of rabbit saphenous artery rings (C-1.1); settings: for % contraction (PE-induced contraction of rabbit saphenous artery): mean +/− SEM; for pIC50: Oryctolagus cuniculus, read-out: IC50, inhibition of phenylephrine induced contractions of rabbit saphenous artery rings
Experimental: Rabbits were anaesthetized and sacrificed by intravenous injection of thiopental sodium (about 50 mg/kg) and exsanguinated. The saphenous artery was removed and divided into rings 3 mm wide. The rings were mounted singly on in each case a pair of triangular hooks open at the end and made of 0.3 mm-thick special wire (Remanium®). Each ring was placed under an initial tension in 5 ml organ baths with Krebs-Henseleit solution which was at 37° C., was gassed with carbogen and had the following composition: NaCl 119 mM; KCl 4.8 mM; CaCl2)×2 H2O 1 mM; MgSO4×7 H2O 1.4 mM; KH2PO41.2 mM; NaHCO325 mM; glucose 10 mM; bovine serum albumin 0.001%. The force of contraction was detected with Statham UC2 cells, amplified and digitized via A/D converters (DAS-1802 HC, Keithley Instruments, Munich) and recorded in parallel on chart recorders. Contractions were induced by addition of phenylephrine.
The concentration necessary to reduce the contraction reached in the preceding control by 50% was calculated from this (IC50). The standard application volume was 5 μl. The proportion of DMSO in the bath solution corresponded to 0.1%.

[2] = tested on: hypoxia induced PAP increase in conscious dogs; assay: Haemodynamics in conscious hypoxia challenged dogs (C-2.2); assay type: in vivo, dog; parameters: PAP, absolute values for each animal: unit: mmHg; settings: for mPAP decrease during Hypoxia, each animal / mPAP decrease during Hypoxia, mean +/− SEM: n = 3
Experimental: Experiments were carried out in anesthetized Göttingen minipigs, anesthetized rats and conscious, telemetrically instrumented dogs. Acute pulmonary hypertension was induced for example by infusion of a thromboxane A2 analogon, by acute hypoxia treatment or hypoxia treatment over a number of weeks and/or by administration of monocrotaline. Test substances were applied via nebulization using the Nebutec® or Aeroneb® Pro nebulizer system, and/or by means of powder and/or solution applicators for experimental intratracheal administration (Liquid MicroSprayer®, Dry Powder Insufflator™, MicroSprayer®, Penn-Century Inc., Wyndmoor, PA, USA) or after solid nebulization inserted into the inspiration arm of the ventilation. Compounds were employed as solids or solutions depending on the molecular structure and the technical possibility depending on the experiment. The haemodynamic signals were recorded and evaluated by means of pressure transducers/amplifiers (Combitransducer B. Braun, Melsungen, Germany or CardioMEMS Inc., Atlanta, GA, USA) and Ponemah® or CardioMems® as data aquisition software. After long-term experiments (for example monocrotaline rat), it is also possible to carry out a histological evaluation.
We evaluated the lung-selectivity and duration of effects of comparative example 11 under conscious conditions, in another species, and under a more physiological stimulus for PAP increase. Dogs were exposed to hypoxia for 30 minutes to induce a hypoxia-mediated PAP increase and comparative example 11 (100 μg/kg nominal dose) was applied by inhalation 1, 5, 12, 16 and 24 hours before hypoxia.
The hypoxic dog model was also used to compare different drug candidates wrt duration of action under conscious conditions.

[3] = Protein binding via Transil assay, dog plasma; assay type: in vitro ADME; settings: Dog Beagle plasma, Transil assay
Excerpt: (§1) The distribution of a test substance between Transil® (phosphatidylcholine lipid bilayers immobilized on silica beads) and plasma is a characteristic feature of any pharmaceutical compound and is dependent on its extent of binding to plasma proteins. By comparing the distribution between Transil® and buffer with the distribution between Transil® and plasma of any species of interest, the unbound fraction in the plasma of the respective animal species can be calculated in vitro. The respective plasma and buffer concentrations were determined via a radioactivity analysis. A detailed description of the method and its validation was published by Schuhmacher et al. (2).

[4] = Protein binding via Transil assay, monkey plasma; assay type: in vitro ADME; settings: Monkey Cynomolgus plasma
Excerpt: as §1

[5] = 100 μg/kg nominal dose inhaled, 1-2 h post inhalation
[6] = 100 μg/kg nominal dose inhaled, 5-6 h post inhalation
[7] = 100 μg/kg nominal dose inhaled, 12-13 h post inhalation
[8] = 100 μg/kg nominal dose inhaled, 16-17 h post inhalation
[9] = 100 μg/kg nominal dose inhaled, 24-25 h post inhalation

O=C(O)c1ccc(CCN(CCc2ccccc2OCc2ccc(-c3ccc(C(F)(F)F)cc3)cc2Cl)[C@H]2CCCc3nc(C(=O)O)ccc32)cc1 [comparative example 11, (5S)-5-{[2-(4-carboxyphenyl)ethyl][2-(2-{[3-chloro-4′-(trifluoromethyl)[biphenyl]-4-yl]methoxy}phenyl)ethyl]amino}-5,6,7,8-tetrahydroquinoline-2-carboxylic acid]
% contraction (PE-induced contraction of rabbit saphenous artery) ([1]; 10^−5 M/L, incubation time 0.5 h): 19 ± 3.0%
% contraction (PE-induced contraction of rabbit saphenous artery) ([1]; 10^−6 M/L, incubation time 0.5 h): 59 ± 4.9%
% contraction (PE-induced contraction of rabbit saphenous artery) ([1]; 10^−7 M/L, incubation time 0.5 h): 80 ± 4.6%
% contraction (PE-induced contraction of rabbit saphenous artery) ([1]; 10^−8 M/L, incubation time 0.5 h): 92 ± 3.0%
% contraction (PE-induced contraction of rabbit saphenous artery) ([1]; 10^−8 M/L, incubation time 2.5 h): 29 ± 9.3%
% contraction (PE-induced contraction of rabbit saphenous artery) ([1]; 10^−9 M/L, incubation time 0.5 h): 103 ± 3.5%
% contraction (PE-induced contraction of rabbit saphenous artery) ([1]; 10^−9 M/L, incubation time 2.5 h): 47 ± 6.2%
% contraction (PE-induced contraction of rabbit saphenous artery) ([1]; 10^−10 M/L, incubation time 0.5 h): 99 ± 3.4%
% contraction (PE-induced contraction of rabbit saphenous artery) ([1]; 10^−10 M/L, incubation time 2.5 h): 67 ± 5.7%
% contraction (PE-induced contraction of rabbit saphenous artery) ([1]; 10^−11 M/L, incubation time 0.5 h): 100 ± 1.5%
% contraction (PE-induced contraction of rabbit saphenous artery) ([1]; 10^−11 M/L, incubation time 2.5 h): 91 ± 2.0%
% contraction (PE-induced contraction of rabbit saphenous artery) ([1]; 10^−12 M/L, incubation time 2.5 h): 98 ± 0%
pIC50 ([1]; 0.5 h, 30 min after incubation): 6.04
pIC50 ([1]; preincubation period of 2.5 h): 9.10
effects on HR ([2]; 100 μg/kg nominal dose inhaled): No effects on HR
PAP, absolute values for each animal ([2]; 100 μg/kg nominal dose inhaled 1 h before hypoxia, time 4 min): 10 and 13 and 8
PAP, absolute values for each animal ([2]; 100 μg/kg nominal dose inhaled 1 h before hypoxia, time 6 min): 12 and 13 and 8
PAP, absolute values for each animal ([2]; 100 μg/kg nominal dose inhaled 1 h before hypoxia, time 8 min): 10 and 12 and 9
PAP, absolute values for each animal ([2]; 100 μg/kg nominal dose inhaled 16 h before hypoxia, time 22 min): 23 (2×) and 12
PAP, absolute values for each animal ([2]; 100 μg/kg nominal dose inhaled 16 h before hypoxia, time 24 min): 21 and 27 and 14
PAP, absolute values for each animal ([2]; 100 μg/kg nominal dose inhaled 16 h before hypoxia, time 26 min): 23 and 24 and 12
PAP, absolute values for each animal ([2]; 100 μg/kg nominal dose inhaled 16 h before hypoxia, time 28 min): 21 and 25 and 15
PAP, absolute values for each animal ([2]; 100 μg/kg nominal dose inhaled 16 h before hypoxia, time 30 min): 21 and 23 and 14
PAP, absolute values for each animal ([2]; 100 μg/kg nominal dose inhaled 16 h before hypoxia, time 32 min): 18 and 26 and 16
PAP, absolute values for each animal ([2]; 100 μg/kg nominal dose inhaled 16 h before hypoxia, time 34 min): 18 and 28 and 15
PAP, absolute values for each animal ([2]; 100 μg/kg nominal dose inhaled 16 h before hypoxia, time 36 min): 17 and 25 and 18
PAP, absolute values for each animal ([2]; 100 μg/kg nominal dose inhaled 16 h before hypoxia, time 38 min): 18 and 27 and 17
PAP, absolute values for each animal ([2]; 100 μg/kg nominal dose inhaled 16 h before hypoxia, time 40 min): 17 (2×) and 28
PAP, absolute values for each animal ([2]; 100 μg/kg nominal dose inhaled 16 h before hypoxia, time 42 min): 9 and 19 and 13
PAP, absolute values for each animal ([2]; 100 μg/kg nominal dose inhaled 16 h before hypoxia, time 44 min): 7 and 18 and 9
PAP, absolute values for each animal ([2]; 100 μg/kg nominal dose inhaled 16 h before hypoxia, time 46 min): 7 and 18 and 6
PAP, absolute values for each animal ([2]; 100 μg/kg nominal dose inhaled 16 h before hypoxia, time 48 min): 6 and 16 and 9
PAP, absolute values for each animal ([2]; 100 μg/kg nominal dose inhaled 16 h before hypoxia, time 50 min): 7 and 15 and 8
PAP, absolute values for each animal ([2]; 100 μg/kg nominal dose inhaled 24 h before hypoxia, time 0 min): 10 and 15 (2×)
PAP, absolute values for each animal ([2]; 100 μg/kg nominal dose inhaled 24 h before hypoxia, time 2 min): 9 and 14 and 12
PAP, absolute values for each animal ([2]; 100 μg/kg nominal dose inhaled 24 h before hypoxia, time 4 min): 8 and 14 and 10
PAP, absolute values for each animal ([2]; 100 μg/kg nominal dose inhaled 24 h before hypoxia, time 6 min): 8 and 16 and 11
PAP, absolute values for each animal ([2]; 100 μg/kg nominal dose inhaled 24 h before hypoxia, time 8 min): 8 and 14 and 9
PAP, absolute values for each animal ([2]; 100 μg/kg nominal dose inhaled 24 h before hypoxia, time 10 min): 9 and 11 and 10
PAP, absolute values for each animal ([2]; 100 μg/kg nominal dose inhaled 24 h before hypoxia, time 12 min): 20 (2×) and 15
PAP, absolute values for each animal ([2]; 100 μg/kg nominal dose inhaled 24 h before hypoxia, time 14 min): 23 and 22 and 19
PAP, absolute values for each animal ([2]; 100 μg/kg nominal dose inhaled 24 h before hypoxia, time 16 min): 27 and 24 and 22
PAP, absolute values for each animal ([2]; 100 μg/kg nominal dose inhaled 24 h before hypoxia, time 18 min): 27 and 26 and 20
PAP, absolute values for each animal ([2]; 100 μg/kg nominal dose inhaled 24 h before hypoxia, time 20 min): 29 (2×) and 23
PAP, absolute values for each animal ([2]; 100 μg/kg nominal dose inhaled 24 h before hypoxia, time 22 min): 27 and 30 and 22
PAP, absolute values for each animal ([2]; 100 μg/kg nominal dose inhaled 24 h before hypoxia, time 24 min): 26 and 28 and 22
PAP, absolute values for each animal ([2]; 100 μg/kg nominal dose inhaled 24 h before hypoxia, time 26 min): 24 and 29 and 17
PAP, absolute values for each animal ([2]; 100 μg/kg nominal dose inhaled 24 h before hypoxia, time 28 min): 26 and 29 and 20
PAP, absolute values for each animal ([2]; 100 μg/kg nominal dose inhaled 24 h before hypoxia, time 30 min): 24
efficacy (PAP decrease), head to head ([2]; 100 μg/kg nominal dose inhaled, up to 6 hrs after inhalation): comparable efficacy
mPAP decrease during Hypoxia, each animal [2, 5]: −12.44 mmHg and −11.44 mmHg and −10.13 mmHg
mPAP decrease during Hypoxia, mean +/− SEM [2, 5]: −11.33 ± 0.67 mmHg
mPAP decrease during Hypoxia, each animal [2, 6]: −16.13 mmHg and −5.44 mmHg and −8.75 mmHg
mPAP decrease during Hypoxia, mean +/− SEM [2, 6]: −10.10 ± 3.16 mmHg
mPAP decrease during Hypoxia, each animal [2, 7]: −3.44 mmHg and −4.81 mmHg and −1.69 mmHg
mPAP decrease during Hypoxia, mean +/− SEM [2, 7]: −3.31 ± 0.90 mmHg
mPAP decrease during Hypoxia, each animal [2, 8]: −2.25 mmHg and −4.25 mmHg and −3.00 mmHg
mPAP decrease during Hypoxia, mean +/− SEM [2, 8]: −3.17 ± 0.58 mmHg
mPAP decrease during Hypoxia, each animal [2, 9]: −0.13 mmHg and −1.94 mmHg and −0.50 mmHg
mPAP decrease during Hypoxia, mean +/− SEM [2, 9]: −0.85 ± 0.55 mmHg
PAP decrease, head to head ([2]; 100 μg/kg nominal dose, 12 and 16 hrs after inhalation): more effective PAP decrease for comparative example 11 compared to comparative example 4
fraction unbound [3]: 0.00108
fraction unbound [4]: 0.000485
